Data reported in patent US7338778B2, “Luminescent method for determining cell oxygen consumption” (Becton, Dickinson and Company, priority 1991, dated 2008).

Key:
HL60 cells [1] = assay: Cytotoxicity assay in oxygen sensor plates; assay type: cell-based; settings: Homo sapiens, read-out: IC50 O2 Sensor
Method: Oxygen sensor plates were prepared by the general methods described herein. Falcon 1177 polystyrene 96 well U-bottom plates (BD Labware) were used for all experiments. The fluorescent dye Ru(DPP)3Cl2 was adsorbed to silica gel by rotary evaporation of ethanolic solutions of the dye with the silica gel. The adsorbed dye-silica and a moisture-cure clear silicone were mixed manually and immediately applied to plate wells with approximately 17 uL silicone per well. These were cured for 2-3 days in a controlled humidity incubator.
All data was obtained with a BMG Polarstar fluorimeter at 37° C. using the bottom plate reading configuration. The bandpass filters were 465 nm for excitation and 590 nm for emission. For the experiments with […]®, a Cytofluor 4000 fluorometer was used with a 485 nm excitation filter and a 580 nm emission filter. Data was read at selected time intervals. Normalized fluorescence data was generally obtained by dividing well values at selected time points by the same well's initial reading with only media or buffer present prior to adding cells.
Cells used for cytotoxicity and quantitation experiments (HL60, U937; ATCC) were grown in tissue culture media recommended by the supplier (RPMI; Gibco and ATCC, respectively). The media was supplemented with either 20% fetal bovine serum (Hyclone) for the HL60 cells or 10% FBS for the U937 cells, with the addition of penicillin, streptomycin and fungizone (Gibco) to prevent microbial contamination. Cells were maintained in a tissue culture incubator (37° C., 5% CO2, 95% humidity) during all experiments between readings.
HL60 cells (human promyelocytic leukemia cell line, ATCC #45500) were grown in tissue culture media recommended by the supplier (RPMI; Gibco), supplemented with 20% fetal bovine serum, heat inactivated at 50° C. for thirty minutes with the addition of penicillin, streptomycin and fungizone (Gibco) to prevent microbial contamination. Cells were maintained in tissue culture incubator (37° C., 5% CO2, 95% humidity) during all experiments. Fluorescence of the oxygen sensor was read on a Polarstar™ fluorometer (BMG), using 465 nm excitation and 590 nm emission filters.
100 uL of tissue culture media was aliquoted into the wells of the Oxygen sensor plate and plate was allowed to equilibrate in the tissue culture incubator for 1 hour prior to taking the initial reading. This reading was used to normalize all subsequent readings to account for well to well variability. Cells were resuspended in fresh media at 960,000 cells/mi. Serial 1:2 dilution of this stock was performed and 100 uL of each dilution was alliquoted across the length of the plate in replicates of 12 (rows B-H), with final cell/well number from 1,500 to 96,000. In row A, 100 uL of tissue culture media was alliquoted into the wells in lieu of cells (no-cells control). Fluorescence measurements were taken every 24 hours over 5 days. The actual number of cells present was counted with a hemocytometer by sampling the parallel well (same seeding cell number). Mean fluorescence from 5 wells per data point (n=5) was plotted against the counted cell number (FIG. 10). Error bars are standard deviation of the mean.
The experiment was performed as described in Example 18, with the following exceptions. Serial dilutions of vinblastine were prepared at twice the final concentration (100 nM to 0.1 nM) in tissue culture media.100 uL of the drug dilution in tissue culture media was aliquoted across the width of the plate in replicates of five, reserving one column for no-drug (media only) control. After an initial reading, a constant number of cells (200,000/well) in 100 uL media were added to each well of rows A-E of the oxygen sensor plate, reserving rows F-H for no-cells control. Fluorescence was read at the indicated times. Mean fluorescence from 5 wells per data point (n=5) was plotted against vinblastine concentration (FIG. 12).

HL60 cells [2] = assay: Cytotoxicity assay by MTT; assay type: cell-based; settings: Homo sapiens, read-out: IC50 MTT
Method: In parallel with the oxygen sensor assays, MTT assays were performed using a Cell Titer Kit™ (Promega), as in Example 20, with the following exceptions. For each time point (corresponding to oxygen sensor assay time point), one flat-bottom 96 well microtiter plate (Falcon) was used. 50 uL of drug dilution in tissue culture media was used for initial reading and cells were suspended in 50 uL media, to the final volume of 100 uL. At indicated time points, 10 uL of MTT reagent was added per well for 1 hour, after which 100 uL of the stop/lysis buffer was added. Plates were sealed with Parafilm™ and cell lysis occurred overnight. Absorbance (570 nm corrected by absorbance at 750 nm) was read using a Thermomax Microplate Reader (Molecular Devices). Mean absorbance from 5 wells per data point, with standard deviation as error bars, was plotted against vinblastine concentration (FIG. 13).
These experiments was performed as described in Example 20, with the exception that appropriate dilutions of the above reagents were substituted for vinblastine: 0.01 nM to 10000 nM methotrexate, 0.00001 to 10 mM sodium azide, and 2 to 2000 uM SDS respectively.

[3] = system: Pseudomonas aeruginosa (ATCC #10145); settings: 1.5×10^8 CFU/ml, 37° C., times less than two hours
Method: A suspension containing about 3×10^8 CFU/ml, of Pseudomonas aeruginosa (ATCC #10145) in Broth A was prepared using an A-Just nephelometer. A total of 150 ul of the suspension was placed in each well of the indicator trays prepared as in Example 1; these suspensions were then diluted with solutions of phenol or copper sulfate (which are deleterious to microbial growth) to a final concentration of 1.5×10^8 CFU/ml. The trays were incubated at 37° C. and their fluorescence measured in a Fluoroskan II at 10 minute intervals.

E. coli (ATCC #25922) [4] = assay: Effect of antibiotics on E. coli, Ru(DPP)3Cl2 indicator tray (Example 8); assay type: cell-based; settings: all concentrations (0.5 to 8 ug/ml), 4 hours
Method: (§1) A 0.5 McFarland suspension of E. coli (ATCC #25922) in Broth A (see Example 1) was prepared using an A-Just nephelometer. […] The trays were incubated at 37° C. for 4 hours and their fluorescence measured in a Fluoroskan II fluorometer.
The fluorescent compound tris 4,7-diphenyl-1,10-phenanthroline ruthenium (II) chloride (Ru(DPP)3Cl2) was synthesized using the procedure of Watts and Crosby (J. Am.Chem. Soc. 93, 3184(1971)). A total of 3.6 mg of the compound was dissolved in 2.0 ml dimethyl sulfoxide (D-5879, Sigma Chemical, St. Louis, Mo.) and the resultant solution was then added slowly, with stirring, to 1300 ml silicone rubber forming solution (Water Based Emulsion #3-5024, Dow Corning, Midland, Mich.). A 35 microliter aliquot of the mixture was subsequently dispensed into each well of a 96 well, flat bottom, white microtiter tray (#011-010-7901, Dynatech, Chantilly, Va.), and the system was subsequently cured overnight in a low humidity (less than 25% RH), 60° C. incubator. After curing, the trays were washed by either soaking or by filling and emptying each well several times with each of the following reagents; a) absolute ethanol, b) 0.1 M phosphate buffer pH 7.2, c) hot distilled water (about 45° C.) and d) ambient temperature distilled water.

E. coli (ATCC #25922) [5] = assay: Effect of antibiotics on oxygen consumption of E. coli, Ru(BiPy)3Cl2 indicator tray (Example 9); assay type: cell-based; settings: all concentrations (0.5 to 8 ug/ml), 4 hours
Method: A 96 well Microtiter tray was produced essentially as in Example 1, except that tris-(2,2′ bipyridyl)-ruthenium (II) chloride hexahydrate (Aldrich Chemical Company, Milwaukee, Wis.) [Ru(BiPy)3Cl2] was substituted for Ru(DPP)3Cl2 in the silicone mixture. A second tray containing 9,10-diphenyl anthracene (DPA) was also prepared. All wells were charged with 150 ul of 1×10^7 CFU/ml E. coli (ATCC #25922) in broth. Table 3 lists the results at 0, 1, 2, 3, and 4 hours after addition of organisms.
as §1

E. coli (ATCC #25922) [6] = assay: Effect of antibiotics on oxygen consumption of E. coli, DPA indicator tray (Example 10); assay type: cell-based; settings: all concentrations (0.5 to 8 ug/ml), 4 hours

Compound: [N-]=[N+]=[N-] [Sodium Azide, sodium azide]
- IC50 (HL60 cells [1]; HL-60, 48 h): 13000 nM
- IC50 (HL60 cells [1]; HL-60, 72 h): 13000 nM
- IC50 (HL60 cells [1]; HL-60, 96 h): 9000 nM
- IC50 (HL60 cells [1]; HL-60, 120 h): 5800 nM
- IC50 (HL60 cells [2]; HL-60, 48 h): 25000 nM
- IC50 (HL60 cells [2]; HL-60, 72 h): 25000 nM
- IC50 (HL60 cells [2]; HL-60, 96 h): 3000 nM
- IC50 (HL60 cells [2]; HL-60, 120 h): 1600 nM

Compound: CC[C@]1(O)C[C@@H]2CN(CCc3c([nH]c4ccccc34)[C@@](C(=O)OC)(c3cc4c(cc3OC)N(C)[C@H]3[C@@](O)(C(=O)OC)[C@H](OC(C)=O)[C@]5(CC)C=CCN6CC[C@]43[C@@H]65)C2)C1 [Vinblastine, vinblastine]
- IC50 (HL60 cells [1]; HL-60, HL60 cells, 48 hours): 11 nM
- IC50 (HL60 cells [1]; HL-60, HL60 cells, 72 hours): 11 nM
- IC50 (HL60 cells [1]; HL-60, HL60 cells, 96 hours): 9 nM
- IC50 (HL60 cells [1]; HL-60, HL60 cells, 120 hours): 9 nM
- IC50 (HL60 cells [2]; HL-60, HL60 cells, 48 hours): 9 nM
- IC50 (HL60 cells [2]; HL-60, HL60 cells, 72 hours): 8 nM
- IC50 (HL60 cells [2]; HL-60, HL60 cells, 96 hours): 7 nM
- IC50 (HL60 cells [2]; HL-60, HL60 cells, 120 hours): 6.4 nM

Compound: Oc1ccccc1 [phenol]
- concentration at which wells had no increase in fluorescence signal (absence of actively metabolizing organisms) [3]: ≥ 1 gram/liter

Compound: O=C(O)c1cn(C2CC2)c2cc(N3CCNCC3)c(F)cc2c1=O [Ciprofloxacin, ciprofloxacin]
- susceptibility of E. coli by fluorescence counts (E. coli (ATCC #25922) [4]): sensitive
- susceptibility of E. coli by fluorescence counts (E. coli (ATCC #25922) [5]): sensitive
- susceptibility of E. coli by fluorescence counts (E. coli (ATCC #25922) [6]): sensitive
